Measurements as given in US20010024809A1, “Compounds with an antioxidant activity, compositions useful as food integrators containing them and process for their preparation” (priority 2000, published 2001).

Assay: Chemiluminescent antioxidant capacity in vitro (luminol/H2O2/p-iodophenol, peroxidase)
Type: biochemical
Settings: for Time (min.) necessary for reaching 50% of the control light emission: water control; for light emission: concentration not given; for antioxidant activity in vitro compared with Trolox: same concentration, extinguishing time of the light emission
Procedure: The antioxidant capacity “in vitro” of FPA and FPB compounds, extracted from Ajuga reptans, and “in vivo” of the serum of rats treated with these substances, was evaluated by means of a chemiluminescent method and compared with that of an analogous hydrosoluble product of vitamin E.
The chemiluminescent reaction of luminol was used, which is oxidized by hydrogen peroxide (H2O2), generating unstable radicals which degenerate to their basic state emitting light. This reaction is catalyzed by peroxidase enzyme. A signal potentiator is also present in the system: p-iodophenol which increases the light emission, producing in turn radicals which degenerate emitting photons.
The presence of substances with an antioxidant activity interrupts the chain of radicalic reactions, temporarily preventing light emission. The time and extinguishing degree of the emission of photons are in relation to the antioxidant capacity and concentration of the substances being tested.
ECL reagent (luminol/H2O2/p-iodophenol) of Amersham International (Amersham, UK).
[…] (type VI-A, 1100 U/mg) of Sigma (St. Louis, Mo., U.S.A.).
Samples relating to FPA and FPB molecules extracted from Ajuga reptans, were prepared in aqueous solution at different concentrations (5.0, 2.0, 1.0 and 0.5 μM) and compared with solutions, at equal concentrations, of Trolox, an analogous hydrosoluble product of tocopherol. The serum of rats treated with raw extract of Ajuga reptans by intravenous administration at a dosage of 200 mg/kg were diluted 1:20 with water and compared with the serum of a non-treated rat.
Distilled water was used as control.
The dosage was effected in black polystyrene cylinders (Dynatech Laboratories, Chantilly, Va., U.S.A.). The chemiluminescent mixture was prepared by adding 100 μl of a dilution 1:10,000 v/v (0.11 U/ml) of a stock solution of peroxidase (1 mg/ml in a Tris-HCl 0.1 M buffer, pH 8.6) to 5 ml of ECL reagent. The various dilutions of the samples were distributed in quadruple into the cylinders (50 μl/cylinder) and 100 μl of chemiluminescent mixture were added to each. The light emission was measured immediately using a Luminograph LB980 (EG&G Berthold, Bad Wildbad, Germany) and the chemiluminescent reaction kinetics was monitored for about 60 minutes. The light emission was measured in photons/sec/pixel and the data obtained are indicated in Table 1 and the graph of FIG. 1 enclosed, compared with the control (water) and references (Trolox or serum of a non-treated rat).

Structure (SMILES)	Time (min.) necessary for reaching 50% of the control light emission (Concentration 0.5 μM)	Time (min.) necessary for reaching 50% of the control light emission (Concentration 1 μM)	Time (min.) necessary for reaching 50% of the control light emission (Concentration 2 μM)	Time (min.) necessary for reaching 50% of the control light emission (Concentration 5 μM)	light emission (Time 0 (min))	light emission (Time 2 (min))	light emission (Time 5 (min))	light emission (Time 7 (min))	light emission (Time 9 (min))	light emission (Time 11 (min))	light emission (Time 14 (min))	light emission (Time 17 (min))	light emission (Time 19 (min))	light emission (Time 21 (min))	light emission (Time 23 (min))	light emission (Time 26 (min))	light emission (Time 28 (min))	light emission (Time 30 (min))	light emission (Time 32 (min))	light emission (Time 34 (min))	also measured
Cc1c(C)c2c(c(C)c1O)CCC(C)(C(=O)O)O2 (racemic) [Trolox, (+/−)-6-hydroxy-2,5,7,8-tetramethylchroman-2-carbonsaeure, reference compound]	1 min	3 min	6 min	15 min	31.8 photons/sec/pixel	2.9 photons/sec/pixel	7.8 photons/sec/pixel	35.5 photons/sec/pixel	46.9 photons/sec/pixel	49.3 photons/sec/pixel	50.4 photons/sec/pixel	49.7 photons/sec/pixel	49.2 photons/sec/pixel	48.3 photons/sec/pixel	47.3 photons/sec/pixel	46.2 photons/sec/pixel	45.1 photons/sec/pixel	43.7 photons/sec/pixel	42.1 photons/sec/pixel	40.8 photons/sec/pixel	light emission (Time 37 (min)): 39.3 photons/sec/pixel; light emission (Time 41 (min)): 35.3 photons/sec/pixel; light emission (Time 44 (min)): 35 photons/sec/pixel; light emission (Time 46 (min)): 32.8 photons/sec/pixel; light emission (Time 49 (min)): 31.1 photons/sec/pixel; light emission (Time 51 (min)): 29.6 photons/sec/pixel; light emission (Time 53 (min)): 28.6 photons/sec/pixel; light emission (Time 56 (min)): 26.2 photons/sec/pixel; light emission (Time 58 (min)): 26.8 photons/sec/pixel; light emission (Time 61 (min)): 23.9 photons/sec/pixel
C[C@@H]1O[C@@H](O[C@@H]2[C@@H](O)[C@H](OCCc3ccc(O)c(O)c3)O[C@H](CO)[C@H]2OC(=O)/C=C/c2ccc(O)c(O)c2)[C@H](O[C@@H]2O[C@H](CO)[C@H](O)[C@H](O)[C@H]2O)[C@H](O)[C@H]1O [FPA, teupolioside]	13 min	35 min	>60 min	>60 min	31.8 photons/sec/pixel	1.3 photons/sec/pixel	1.4 photons/sec/pixel	1 photons/sec/pixel	0.9 photons/sec/pixel	0.8 photons/sec/pixel	0.8 photons/sec/pixel	0.7 photons/sec/pixel	0.6 photons/sec/pixel	0.6 photons/sec/pixel	0.6 photons/sec/pixel	0.5 photons/sec/pixel	0.6 photons/sec/pixel	0.5 photons/sec/pixel	0.6 photons/sec/pixel	1.1 photons/sec/pixel	light emission (Time 37 (min)): 0.8 photons/sec/pixel; light emission (Time 41 (min)): 0.7 photons/sec/pixel; light emission (Time 44 (min)): 0.9 photons/sec/pixel; light emission (Time 46 (min)): 0.8 photons/sec/pixel; light emission (Time 49 (min)): 0.8 photons/sec/pixel; light emission (Time 51 (min)): 0.8 photons/sec/pixel; light emission (Time 53 (min)): 0.8 photons/sec/pixel; light emission (Time 56 (min)): 1.1 photons/sec/pixel; light emission (Time 58 (min)): 0.8 photons/sec/pixel; light emission (Time 61 (min)): 1.1 photons/sec/pixel; activity relative to that of Trolox (dosage of 1 μM): ~12 times; antioxidant activity of FPA compared with FPB (in vitro): slightly higher activity with respect to the FPB compound; antioxidant activity in vitro compared with Trolox: extremely high antioxidant activity in vitro, significantly higher than that of Trolox
COc1cc(C=CC(=O)OC2C(CO)OC(OCCc3ccc(O)c(O)c3)C(O)C2OC2OC(C)C(O)C(O)C2OC2OC(CO)C(O)C(O)C2O)ccc1O (stereo not shown) [FPB]	6 min	29 min	>60 min	>60 min	31.8 photons/sec/pixel	0.3 photons/sec/pixel	0.2 photons/sec/pixel	0 photons/sec/pixel	0 photons/sec/pixel	0 photons/sec/pixel	0 photons/sec/pixel	0 photons/sec/pixel	0.1 photons/sec/pixel	0.4 photons/sec/pixel	1.1 photons/sec/pixel	1.8 photons/sec/pixel	2.6 photons/sec/pixel	3.5 photons/sec/pixel	5.1 photons/sec/pixel	7 photons/sec/pixel	light emission (Time 37 (min)): 6.6 photons/sec/pixel; light emission (Time 41 (min)): 7.6 photons/sec/pixel; light emission (Time 44 (min)): 8.6 photons/sec/pixel; light emission (Time 46 (min)): 8.9 photons/sec/pixel; light emission (Time 49 (min)): 9.6 photons/sec/pixel; light emission (Time 51 (min)): 10.3 photons/sec/pixel; light emission (Time 53 (min)): 10.9 photons/sec/pixel; light emission (Time 56 (min)): 11.4 photons/sec/pixel; light emission (Time 58 (min)): 12.1 photons/sec/pixel; light emission (Time 61 (min)): 12.7 photons/sec/pixel; antioxidant activity in vitro compared with Trolox: extremely high antioxidant activity in vitro, significantly higher than that of Trolox
